From BindingDB's records for doi:10.1016/j.ejmech.2021.113512 (Jagiellonian University Medical College, 2021)

Assay: Inhibition of mouse GAT3 expressed in human HEK293 cell line assessed as inhibition of [3H]GABA uptake measured after 40 mins […]

SMILES | IC50 [µM]
CN(CCC=C(c1ccccc1)c1ccccc1)C(CCN)C(=O)NCc1ccccc1Cl (configuration not stated) | 10
Cc1ccsc1C(=CCCN(C)[C@H]1CCCC[C@H]1C(=O)O)c1sccc1C | 933
CN(CCC=C1c2ccccc2-c2ccccc21)C(CCO)C(=O)NCc1ccccc1 (configuration not stated) | 12.6
CN(CCC=C1c2ccccc2-c2ccccc21)C(CCO)C(=O)NCc1ccccc1Cl (configuration not stated) | 16.2
CN(CCC=C1c2ccccc2-c2ccccc21)C(CCO)C(=O)NCc1ccc(Cl)cc1 (configuration not stated) | 10.2
CN(CCC=C1c2ccccc2-c2ccccc21)C(CCO)C(=O)NCc1ccc(F)cc1 (configuration not stated) | 13.5
Cc1ccc(CNC(=O)C(CCO)N(C)CCC=C2c3ccccc3-c3ccccc32)cc1 (configuration not stated) | 20
CN(CCC=C1c2ccccc2C=Cc2ccccc21)C(CCO)C(=O)NCc1ccccc1 (configuration not stated) | 13.5
CN(CCC=C1c2ccccc2C=Cc2ccccc21)C(CCO)C(=O)NCc1ccccc1Cl (configuration not stated) | 8.91
CN(CCC=C1c2ccccc2C=Cc2ccccc21)C(CCO)C(=O)NCc1ccc(Cl)cc1 (configuration not stated) | 13.5
CN(CCC=C1c2ccccc2C=Cc2ccccc21)C(CCO)C(=O)NCc1ccc(F)cc1 (configuration not stated) | 12.3
Cc1ccc(CNC(=O)C(CCO)N(C)CCC=C2c3ccccc3C=Cc3ccccc32)cc1 (configuration not stated) | 17
CN(CCC=C1c2ccccc2CCc2ccccc21)C(CCO)C(=O)NCc1ccccc1 (configuration not stated) | 11.5
CN(CCC=C1c2ccccc2CCc2ccccc21)C(CCO)C(=O)NCc1ccccc1Cl (configuration not stated) | 12.6
CN(CCC=C1c2ccccc2CCc2ccccc21)C(CCO)C(=O)NCc1ccc(F)cc1 (configuration not stated) | 16.6
Cc1ccc(CNC(=O)C(CCO)N(C)CCC=C2c3ccccc3CCc3ccccc32)cc1 (configuration not stated) | 12.6
CN(CCC=C1c2ccccc2CCc2ccccc21)C(CCN)C(=O)NCc1ccccc1Cl (configuration not stated) | 8.13
CN(CCC=C1c2ccccc2CCc2ccccc21)C(CCN)C(=O)NCc1ccc(Cl)cc1 (configuration not stated) | 5.13
CN(CCC=C1c2ccccc2CCc2ccccc21)C(CCN)C(=O)NCc1ccc(F)cc1 (configuration not stated) | 4.79
Cc1ccc(CNC(=O)C(CCN)N(C)CCC=C2c3ccccc3CCc3ccccc32)cc1 (configuration not stated) | 4.79
CC(=O)NCCC(C(=O)NCc1ccc(Cl)cc1)N(C)CCC=C1c2ccccc2CCc2ccccc21 (configuration not stated) | 14.5
CC(=O)NCCC(C(=O)NCc1ccc(C)cc1)N(C)CCC=C1c2ccccc2CCc2ccccc21 (configuration not stated) | 5.62
